Laboratory results published in patent US11951190B2, “Use of labeled inhibitors of prostate specific membrane antigen (PSMA), as agents for the treatment of prostate cancer” (DEUTSCHES KREBSFORSCHUNGSZENTRUM, priority 2013, dated 2024).

Legend:
[1] = target: T1, PSMA expressing cell line LNCaP (Homo sapiens, UniProt Q04609); assay: Competitive cell binding assay (68Ga-labeled [Glu-urea-Lys(Ahx)]2-HBED-CC radioligand); settings: LNCaP cells, competition with 68Ga-labeled [Glu-urea-Lys(Ahx)]2-HBED-CC
T1 construct: using the PSMA expressing cell line LNCaP; host or cells: LNCaP
T1 sequence (Q04609 whole entry): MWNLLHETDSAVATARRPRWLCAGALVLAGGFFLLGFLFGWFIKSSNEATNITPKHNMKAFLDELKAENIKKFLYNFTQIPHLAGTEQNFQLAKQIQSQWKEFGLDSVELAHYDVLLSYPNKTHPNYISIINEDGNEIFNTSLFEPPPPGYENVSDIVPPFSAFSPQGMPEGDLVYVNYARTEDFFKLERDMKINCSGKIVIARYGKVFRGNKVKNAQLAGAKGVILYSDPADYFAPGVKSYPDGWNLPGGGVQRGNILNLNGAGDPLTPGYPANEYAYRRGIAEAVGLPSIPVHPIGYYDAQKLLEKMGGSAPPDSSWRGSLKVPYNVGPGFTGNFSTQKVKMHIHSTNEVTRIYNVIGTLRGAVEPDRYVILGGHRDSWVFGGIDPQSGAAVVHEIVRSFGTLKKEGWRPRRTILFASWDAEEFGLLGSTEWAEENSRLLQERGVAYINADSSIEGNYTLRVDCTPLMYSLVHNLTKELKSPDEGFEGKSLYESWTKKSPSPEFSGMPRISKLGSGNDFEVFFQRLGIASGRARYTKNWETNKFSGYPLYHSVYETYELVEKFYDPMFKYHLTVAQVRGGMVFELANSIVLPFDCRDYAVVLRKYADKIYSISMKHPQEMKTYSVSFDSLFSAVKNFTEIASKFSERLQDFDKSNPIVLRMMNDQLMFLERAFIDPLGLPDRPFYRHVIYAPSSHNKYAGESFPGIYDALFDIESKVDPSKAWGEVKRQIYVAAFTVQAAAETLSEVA
Protocol: (§1) In order to compare the series of novel compounds the competitive binding affinity and the specific internalization was analyzed using the PSMA expressing cell line LNCaP. To determine specific cellular uptake, cells were blocked with 2-(phosphonomethyl)-pentanedioic acid (PMPA). The inhibition potency was also investigated by the enzyme-based NAALADase assay.
(§2) For binding studies and in vivo experiments LNCaP cells (metastatic lesion of human prostatic adenocarcinoma, ATCC CRL-1740) were cultured in RPMI medium supplemented with 10% fetal calf serum and Glutamax (PAA, Austria). During cell culture, cells were grown at 37° C. in an incubator with humidified air, equilibrated with 5% CO2. The cells were harvested using trypsin-ethylenediaminetetraacetic acid (trypsin-EDTA; 0.25% trypsin, 0.02% EDTA, all from PAA, Austria) and washed with PBS.
The competitive cell binding assay and internalization experiments were performed as described previously (Eder et al. 2012).

LNCaP cells = assay: Specific cell uptake and internalization; format: cell-based, human; settings: 45 min
Protocol: as §1, §2
To determine the specific cell uptake and internalization, 10^5 cells were seeded in poly-L-lysine coated 24-well cell culture plates 24 h before incubation. After washing, the cells were incubated with 25 nM of the radiolabeled compounds for 45 min at 37° C. and at 4° C., respectively. Specific cellular uptake was determined by competitive blocking with 2-(phosphonomethyl)pentanedioic acid (500 μM final concentration, PMPA, Axxora, Loerrach, Germany). Cellular uptake was terminated by washing 4 times with 1 mL of ice-cold PBS. Cells were subsequently incubated twice with 0.5 mL glycine-HCl in PBS (50 mM, pH=2.8) for 5 min to remove the surface-bound fraction. The cells were washed with 1 mL of ice-cold PBS and lysed using 0.3 N NaOH (0.5 mL). The surface-bound and the internalized fractions were measured in a gamma counter. The cell uptake was calculated as percent of the initially added radioactivity bound to 10^6 cells [% ID/10^6 cells].

LNCaP tumor xenografts [2] = assay: Dynamic microPET imaging; format: in vivo, athymic male nude mice; settings: 68Ga-labeled
Protocol: Whole-body coronal microPET images of an athymic male nude mice bearing LNCaP tumor xenografts. […] Approximately 15 MBq/mouse were injected. […] The values are expressed as mean SUV (standardized uptake values).
For the microPET studies, 10-25 MBq of the radiolabeled compounds in a volume of 0.15 ml (˜0.5 nmol) were injected via a lateral tail vein into mice bearing LNCaP tumor xenografts. The anesthetized animals (2% sevoflurane, Abbott, Wiesbaden, Germany) were placed in prone position into the Inveon small animal PET scanner (Siemens, Knoxville, Tn., USA) to perform dynamic microPET scans and 20 min-static scans; c.f. FIG. 1, 3, 5-14

LNCaP tumor xenografts [3] = assay: Biodistribution / organ distribution in LNCaP tumor-bearing mice; format: in vivo, BALB/c nu/nu mice; settings: for PSMA-specific uptake (organ distribution): 68Ga labeled, 1 h post injection of 0.06 nmol, blocking with 2 mg/kg 2-PMPA
Protocol: FIG. 2: Organ Distribution at 1 h post injection. […] Data are expressed as mean % ID/g tissue±SD (n=3).
The favourable pharmacokinetics led to extremely high tumor-to-background ratios (Tumor/Blood: 1058; Tumor/Muscle: 529) after 24 hours
7- to 8-week-old male BALB/c nu/nu mice (Charles River Laboratories) were subcutaneously inoculated into the right trunk with 5×10^6 cells of LNCaP (in 50% Matrigel; Becton Dickinson, Heidelberg, Germany). The tumors were allowed to grow until approximately 1 cm3 in size. The radiolabeled compounds were injected into the tail vein (approx. 1 MBq per mouse; 0.06 nmol). […] Organs of interest were dissected, blotted dry, and weighed. The radioactivity was measured using a gamma counter and calculated as % ID/g.

[4] = for Ga-68, 25 nM radiolabeled compound
[5] = 177Lu-labeled, 24 h post injection of 0.06 nmol, n=5

O=C(O)CC[C@H](NC(=O)N[C@@H](CCCCNC(=O)C1CCC(CNC(=O)C(Cc2ccc3ccccc3c2)NC(=O)CN2CCN(CC(=O)O)CCN(CC(=O)O)CCN(CC(=O)O)CC2)CC1)C(=O)O)C(=O)O (stereo partly drawn) [MB35]
IC50 [1]: 0.0262 µM

O=C(O)CC[C@H](NC(=O)N[C@@H](CCCCNC(=O)C1CCC(CNC(=O)C2CCC(CNC(=O)CN3CCN(CC(=O)O)CCN(CC(=O)O)CCN(CC(=O)O)CC3)CC2)CC1)C(=O)O)C(=O)O (stereo partly drawn) [MB31]
IC50 [1]: 0.0918 µM

O=C(O)CCC(NC(=O)NC(CCCCNC(=O)c1ccc(CNC(=O)c2ccc(CNC(=O)CN3CCN(CC(=O)O)CCN(CC(=O)O)CCN(CC(=O)O)CC3)cc2)cc1)C(=O)O)C(=O)O (stereo not drawn) [MB3]
IC50 [1]: 0.0105 ± 0.00606 µM

O=C(O)CCC(NC(=O)NC(CCCCNC(=O)C1CCC(CNC(=O)CN2CCN(CC(=O)O)CCN(CC(=O)O)CCN(CC(=O)O)CC2)CC1)C(=O)O)C(=O)O (stereo not drawn) [MB22]
IC50 [1]: 0.0528 µM

O=C(O)CC[C@H](NC(=O)N[C@@H](CCCCNC(=O)c1ccc(CNC(=O)c2ccc(CNC(=O)c3ccc(CNC(=O)CN4CCN(CC(=O)O)CCN(CC(=O)O)CCN(CC(=O)O)CC4)cc3)cc2)cc1)C(=O)O)C(=O)O [MB4]
Internalization (LNCaP cells; [4]): 14.18 ± 0.98 for Ga-68 % IA/10^6 cells
IC50 [1]: 0.00074 ± 0.0005 µM

O=C(O)CCC(NC(=O)NC(CCCCNC(=O)C(Cc1ccc2ccccc2c1)NC(=O)CCCCCNC(=O)CN1CCN(CC(=O)O)CCN(CC(=O)O)CCN(CC(=O)O)CC1)C(=O)O)C(=O)O (stereo not drawn) [MB25]
IC50 [1]: 0.00664 µM

O=C(O)CC[C@H](NC(=O)N[C@@H](CCCCNC(=O)[C@H](Cc1ccc2ccccc2c1)NC(=O)[C@H]1CC[C@H](CNC(=O)CN2CCN(CC(=O)O)CCN(CC(=O)O)CCN(CC(=O)O)CC2)CC1)C(=O)O)C(=O)O [MB17]
background clearance and kidney enrichment in PET diagrams (LNCaP tumor xenografts [2]; after 2 hours): rapid background clearance as well as a substantial reduction of the enrichment in the kidney
time of maximum kidney uptake (highest point in the time-activity-curve) (LNCaP tumor xenografts [2]; dynamic PET, after injection of the radiotracer): 15 min
Internalization (LNCaP cells; [4]): 17.02 ± 4.36 for Ga-68 % IA/10^6 cells
Internalization (LNCaP cells; for Lu-177, 25 nM radiolabeled compound): 17.51 ± 3.99 for Lu-177 % IA/10^6 cells
PSMA-specific uptake (organ distribution) (LNCaP tumor xenografts [3]; 2 mg/kg): PSMA-specific uptake in the tumor and the kidneys
PSMA-specific uptake (organ distribution) (LNCaP tumor xenografts [3]; listed as MB 17, 2 mg/kg): high PSMA-specific tumor uptake
kidney uptake (LNCaP tumor xenografts [3]; [5]): 2.13±1.36 % ID/g
liver uptake (LNCaP tumor xenografts [3]; [5]): 0.08±0.03 % ID/g
lung uptake (LNCaP tumor xenografts [3]; [5]): 0.11±0.13 % ID/g
spleen uptake (LNCaP tumor xenografts [3]; [5]): 0.13±0.05 % ID/g
tumor uptake (LNCaP tumor xenografts [3]; [5]): 10.58±4.50 % ID/g

O=C(O)CCC(NC(=O)NC(CCCCNC(=O)c1ccc(CNC(=O)c2ccc(CNC(=O)c3ccc(CNC(=O)c4ccc(CNC(=O)CN5CCN(CC(=O)O)CCN(CC(=O)O)CCN(CC(=O)O)CC5)cc4)cc3)cc2)cc1)C(=O)O)C(=O)O (stereo not drawn) [MB10]
IC50 [1]: 0.00867 ± 0.00158 µM

O=C(O)CC[C@H](NC(=O)N[C@@H](CCCCNC(=O)C1CCC(CNC(=O)c2ccc(CNC(=O)CN3CCN(CC(=O)O)CCN(CC(=O)O)CCN(CC(=O)O)CC3)cc2)CC1)C(=O)O)C(=O)O (stereo partly drawn) [MB33]
IC50 [1]: 0.0593 µM

O=C(O)CCC(NC(=O)NC(CCCCNC(=O)c1ccc(CNC(=O)CN2CCN(CC(=O)O)CCN(CC(=O)O)CCN(CC(=O)O)CC2)cc1)C(=O)O)C(=O)O (stereo not drawn) [MB2]
Internalization (LNCaP cells; [4]): 8.78 ± 3.96 for Ga-68 % IA/10^6 cells
IC50 [1]: 0.00275 ± 0.00082 µM

O=C(O)CCC(NC(=O)NC(CCCCNC(=O)C(Cc1ccc2ccccc2c1)NC(=O)c1ccc(CNC(=O)CN2CCN(CC(=O)O)CCN(CC(=O)O)CCN(CC(=O)O)CC2)cc1)C(=O)O)C(=O)O (stereo not drawn) [MB24]
IC50 [1]: 0.00333 µM

O=C(O)CC[C@H](NC(=O)N[C@@H](CCCCNC(=O)[C@@H](Cc1ccc2ccccc2c1)NC(=O)[C@H]1CC[C@H](CNC(=O)CN2CCN(CC(=O)O)CCN(CC(=O)O)CCN(CC(=O)O)CC2)CC1)C(=O)O)C(=O)O [MB17.D]
IC50 [1]: 0.0124 ± 0.0051 µM
